Assay results from US20040106663A1, “Inhibitors of fungal invasion” (priority 2002, published 2004).
pIC50: −log10 of the molar value. Where “and” joins values, the source holds several entries; their conditions need not be identical. Equal values may be shown once. Read-outs that look alike come from different tables or passages of the source. Marks after values point to notes of the source that are not given here.

Legend:
[1] = system: logarithmic phase C. albicans (MC295) containing HWP1-lacZ; assay: microbe, parasite or virus in culture; assay type: cell-based; conditions: Candida albicans
[2] = system: stationary phase C. albicans (MC295) containing HWP1-lacZ; assay: microbe, parasite or virus in culture; assay type: cell-based, Candida albicans
[3] = system: HepG2 human hepatoma cells; conditions: 4 h
Method: Mammalian Cell Toxicity Assay
To investigate the toxicity of Compound I for mammalian cells, human hepatoma cell line HepG2 were exposed to Compound I and the (LD50) was determined. Briefly, HepG2 human hepatoma cells (American Type Culture Collection, Bethesda Md.) were plated at 1×10^5 cells/well in tissue culture treated 96 well plates and incubated at 5% CO2, 37° C. for 18 h prior to initiation of the assay. The compound stocks at 100 mM in DMSO were added to DM (defined media, media without serum with added insulin, selenium and transferrin) at an initial concentration of 1000 μM and serially diluted 1 to 3 in DM in a 96 well plate. For 20 μL of a test solution, 3.5 μL sample is added to 346.5 μL media for an initial concentration of 1000 μM. These dilutions are added to the cells at final sample concentrations between 0.5 and 1000 μM (<1% DMSO). Controls included: media only (negative control) and 0.1% Triton-X (positive control). Control drugs (tamoxifen and 2-thiouracil) were also used to verify each assay. The samples were incubated at 37° C. in humidified 5% CO2 atmosphere for 4 h.
The plate was read directly on the Tecan Spectrafluor Plus reader in the fluorescent mode at excitation 530 nm and emission 595 nm. The blank was subtracted from the total fluorescence to give the net fluorescence for that well. This total was compared to the control in the absence of the compound. An LD50 (concentration at 50% of lethal dose) is calculated as the concentration that leads to a response of 50% compared to the control cells. Thus, cytotoxicity is measured as percent of inhibition of cell viability as determined by the Alamar Blue assay.

[4] = system: C. albicans; assay: C. albicans overnight growth inhibition; assay type: cell-based, Candida albicans; set-up: concentration or dose not given beside the values
[5] = system: C. albicans (MC303); assay: C. albicans morphology assay (hyphae scored 1-5); conditions: scale 1-5; for C. albicans Phenotype Rating: invasion morphology phenotype, test compound at 10 μM
Method: In this assay, described in greater detail below, the morphology of cells was assessed and scored on a 1-5 scale. A score of 1 was assigned to non-hyphal cells, “yeast-like” cells and budding cells, and a score of 5 was assigned to cells having many, relatively long (wild-type) hyphae.
A frozen stock culture was prepared by streaking C. albicans (MC303: ura3 Δ:: imm434/ura3Δ:: imm434 arg4::hisG/arg4::hisG ade2:: URA3:.pTEF1-lacZ/ADE2 hisl::hisG/HIS1 gal1::ARG4/GAL1) cells on a YPD agar plate and grown at 30° C. for 14-18 h. An isolated colony was added to 5 mL of YPD broth and grown on a roller drum (60 rpm) for 14-18 h at 30° C. Next, 600 μL of culture were aliquotted into 1 mL of 25% glycerol, and the tubes are stored at −80° C.
Frozen MC303 C. albicans cell stock was struck for isolation of a single colony using a sterile loop on a YPD agar plate and grown at 30° C. for 14-18 h. A single colony was inoculated into 5 mL of YPD in a test tube and grown on a roller drum (60 rpm) for 2 days at 30° C. to late stationary phase (OD600˜30). For the assay, this stock was diluted to 2.5×10^5 cells/mL to make a 10× stock. Next, 10 μL of this cell stock was added to 80 μL of Inducing Media and 10 μL of 10× compound stock or DMSO in a Coming, tissue-culture treated, flat-bottom, microtiter plate. The plate was incubated at 37° C. for 24 h. Next, 10 μL of formaldehyde (37%) was added to each well and the cells were fixed for 10 min. The liquid was gently decanted from the plate and each well was examined under a microscope. Each well was photographed and observed cells are scored on a scale of 1-5. […] A 1 indicates cells are non-hyphal with only “yeast-like” cells and budding cells.
Scores of 2, 3, and 4 indicate shorter length or reduced quantity of hyphae when compared with WT (2 being very near non-hyphal and 4 being close to WT).

[6] = system: HepG2 human hepatoma cells; conditions: cited from earlier work
[7] = read-out: C. albicans LOG IC50, logarithmic phase growth invasion assay (converted)
[8] = Candida albicans, read-out: C. albicans STAT IC50, stationary phase growth invasion assay

## Cc1cc(NS(=O)(=O)c2ccc(OC(F)(F)F)cc2)no1
[1]; [7]
  IC50: 10700 nM
[2]; [8]
  pIC50: < 4.70
[3]
  AFDD Mammalian Cytotoxicity LD50: >1000 µM
[4]
  C. albicans Overnight Growth Inhibition: 4.0%
[5]
  C. albicans Phenotype Rating: 4

## CCCCCCc1ccc(S(=O)(=O)Nc2cc(C)on2)cc1
[1]; [7]
  IC50: 9.9 nM
[2]; [8]
  pIC50: 5.54
[3]
  AFDD Mammalian Cytotoxicity LD50: 449.1 µM
[4]
  C. albicans Overnight Growth Inhibition: 32.5%
[5]
  C. albicans Phenotype Rating: 2 and 4 and 5

## Cc1ccc(-c2ccc(S(=O)(=O)Nc3cc(C)on3)cc2)cc1
[1]; [7]
  IC50: 41 nM
[2]; [8]
  pIC50: < 4.70
[3]
  AFDD Mammalian Cytotoxicity LD50: >1000 µM
[4]
  C. albicans Overnight Growth Inhibition: 12.3%

## CCc1ccc(S(=O)(=O)Nc2cc(C)on2)cc1
[1]; [7]
  IC50: 1610 nM
[2]; [8]
  pIC50: < 4.70
[3]
  AFDD Mammalian Cytotoxicity LD50: >1000 µM
[4]
  C. albicans Overnight Growth Inhibition: −78.9%
[5]
  C. albicans Phenotype Rating: 4

## Cc1cc(NS(=O)(=O)c2ccc(-c3ccco3)cc2)no1
[1]; [7]
  IC50: 39 nM
[2]; [8]
  pIC50: < 4.70
[3]
  AFDD Mammalian Cytotoxicity LD50: >1000 µM
[4]
  C. albicans Overnight Growth Inhibition: 23.9%
[5]
  C. albicans Phenotype Rating: 4

## Cc1cc(NS(=O)(=O)c2ccc(CC3CCCC3)cc2)no1
[1]; [7]
  IC50: 79.2 nM
[2]; [8]
  pIC50: 5.35
[3]
  AFDD Mammalian Cytotoxicity LD50: 660.9 µM
[4]
  C. albicans Overnight Growth Inhibition: 0.9%
[5]
  C. albicans Phenotype Rating: 2 and 4 and 5

## Cc1cc(NS(=O)(=O)c2ccc(-c3ccc(F)cc3F)cc2)no1 [drawing 258]
[3]
  AFDD Mammalian Cytotoxicity LD50: >1000 µM
[4]
  C. albicans Overnight Growth Inhibition: −3.6%

## Cc1cc(NS(=O)(=O)c2ccc(-c3cc(F)cc(F)c3)cc2)no1 [Example 1, N-(5-methyl-3-isoxazolyl)-4′-(3,5-difluorophenyl)benzensulfonamide]
other
  melting point: 175 °C

## CCCCOc1ccc(S(=O)(=O)Nc2cc(C)on2)cc1
[1]; [7]
  IC50: 42 nM
[2]; [8]
  pIC50: 4.93
[3]
  AFDD Mammalian Cytotoxicity LD50: >1000 µM
[4]
  C. albicans Overnight Growth Inhibition: −6.4%

## Cc1cc(NS(=O)(=O)c2ccc(C(C)(C)C)cc2)no1
[1]; [7]
  IC50: 1200 nM
[2]; [8]
  pIC50: < 4.70
[3]
  AFDD Mammalian Cytotoxicity LD50: >1000 µM
[4]
  C. albicans Overnight Growth Inhibition: −107.0%
[5]
  C. albicans Phenotype Rating: 5

## Cc1cc(NS(=O)(=O)c2ccc(-c3ccc(F)cc3)cc2)no1
[1]; [7]
  IC50: 294 nM
[3]
  AFDD Mammalian Cytotoxicity LD50: 983.2 µM
[4]
  C. albicans Overnight Growth Inhibition: 12.7%

## Cc1cc(NS(=O)(=O)c2ccc(-c3ccc4c(c3)OCO4)cc2)no1
[1]; [7]
  IC50: 674 nM
[2]; [8]
  pIC50: < 4.70
[3]
  AFDD Mammalian Cytotoxicity LD50: >1000 µM

## Cc1cc(NS(=O)(=O)c2ccc(-c3ccccc3)cc2)no1
[1]; [7]
  IC50: 89.3 nM
[3]
  AFDD Mammalian Cytotoxicity LD50: >1000 µM
[4]
  C. albicans Overnight Growth Inhibition: 19.5%
[5]
  C. albicans Phenotype Rating: 2 and 5

## Cc1cc(NS(=O)(=O)c2ccc(-c3cc4ccccc4o3)cc2)no1
[1]; [7]
  IC50: 320 nM
[2]; [8]
  pIC50: 5.58
[4]
  C. albicans Overnight Growth Inhibition: 23.8%
[5]
  C. albicans Phenotype Rating: 2*

## Cc1cc(NS(=O)(=O)c2ccc(-c3nccs3)cc2)no1
[1]; [7]
  IC50: 2800 nM
[2]; [8]
  pIC50: < 4.70
[4]
  C. albicans Overnight Growth Inhibition: 32.7%
[5]
  C. albicans Phenotype Rating: 3 and 5

## CCc1ccc(-c2ccc(S(=O)(=O)Nc3cc(C)on3)cc2)cc1
[1]; [7]
  IC50: 115 nM
[2]; [8]
  pIC50: < 4.70
[4]
  C. albicans Overnight Growth Inhibition: −14.4%
[5]
  C. albicans Phenotype Rating: 5

## Cc1cc(NS(=O)(=O)c2ccc(-c3cccc(Cl)c3)cc2)no1
[1]; [7]
  IC50: 110 nM
[2]; [8]
  pIC50: < 4.70
[4]
  C. albicans Overnight Growth Inhibition: 7.7%
[5]
  C. albicans Phenotype Rating: 5

## CCCCc1ccc(S(=O)(=O)Nc2cc(C)on2)cc1 [drawing 232]
[1]; [7]
  IC50: 6.03 nM
[2]; [8]
  pIC50: 6.05
[3]
  AFDD Mammalian Cytotoxicity LD50: >1000 µM
[4]
  C. albicans Overnight Growth Inhibition: 19.4%

## Cc1cc(NS(=O)(=O)c2ccc(-c3ccc(F)c(C)c3)cc2)no1
[1]; [7]
  IC50: 116 nM
[3]
  AFDD Mammalian Cytotoxicity LD50: 601.4 µM
[4]
  C. albicans Overnight Growth Inhibition: 2.6%

## Cc1cc(NS(=O)(=O)c2ccc(-n3cccn3)cc2)no1
[1]; [7]
  IC50: 2100 nM
[2]; [8]
  pIC50: < 4.70
[4]
  C. albicans Overnight Growth Inhibition: −13.3%
[5]
  C. albicans Phenotype Rating: 5

## Cc1cc(NS(=O)(=O)c2ccc(-c3ccccc3C)cc2)no1
[1]; [7]
  IC50: 56 nM
[2]; [8]
  pIC50: < 4.70
[4]
  C. albicans Overnight Growth Inhibition: 4.8%
[5]
  C. albicans Phenotype Rating: 5

## CCCNc1ccc(S(=O)(=O)Nc2cc(C)on2)cc1 [drawing 266]
[1]; [7]
  IC50: 360 nM
[2]; [8]
  pIC50: 4.98
[2]; read-out: C. albicans STAT IC50, stationary phase growth invasion assay
  pIC50: < 4.70
[3]
  AFDD Mammalian Cytotoxicity LD50: >1000 µM
[4]
  C. albicans Overnight Growth Inhibition: −17.9%

## Cc1cc(NS(=O)(=O)c2ccc(-c3ccc(F)cc3)cc2C)no1
[1]; [7]
  IC50: 1470 nM
[2]; [8]
  pIC50: < 4.70
[3]
  AFDD Mammalian Cytotoxicity LD50: 648.5 µM
[4]
  C. albicans Overnight Growth Inhibition: 1.3%
[5]
  C. albicans Phenotype Rating: 4

## CCCCc1ccc(S(=O)(=O)Nc2cc(C)on2)s1 [Example 2, 5-Butyl-N-(5-methylisoxazol-3yl)thiophene-2-sulfonamide]
other
  melting point: 96.5 to 100.7 °C

## Cc1cc(NS(=O)(=O)c2ccc(OC(C)C)cc2)no1
[1]; [7]
  IC50: 3600 nM
[2]; [8]
  pIC50: < 4.70
[4]
  C. albicans Overnight Growth Inhibition: 0.8%
[5]
  C. albicans Phenotype Rating: 5

## CCCCc1ccc(S(=O)(=O)Nc2ccon2)cc1
[1]; [7]
  IC50: 1420 nM
[2]; [8]
  pIC50: 4.76
[4]
  C. albicans Overnight Growth Inhibition: 18.3%
[5]
  C. albicans Phenotype Rating: 5

## Cc1cc(NS(=O)(=O)c2ccc(Oc3ccccc3)cc2)no1
[1]; [7]
  IC50: 5210 nM
[2]; [8]
  pIC50: < 4.70
[4]
  C. albicans Overnight Growth Inhibition: 4.4%
[5]
  C. albicans Phenotype Rating: 5

## Cc1cc(NS(=O)(=O)c2ccc(-c3ccc(F)c(Cl)c3)cc2)no1
[1]; [7]
  IC50: 192 nM
[2]; [8]
  pIC50: < 4.70
[4]
  C. albicans Overnight Growth Inhibition: 18.6%
[5]
  C. albicans Phenotype Rating: 5

## Cc1cc(NS(=O)(=O)c2ccc(C3CCCC3)cc2)no1
[1]; [7]
  IC50: 110 nM
[2]; [8]
  pIC50: 4.70
[4]
  C. albicans Overnight Growth Inhibition: 13.9%
[5]
  C. albicans Phenotype Rating: 5

## Cc1cc(NC(=O)Nc2ccc(S(=O)(=O)Nc3cc(C)on3)cc2)no1
[1]; [7]
  IC50: 5160 nM
[2]; [8]
  pIC50: < 4.70
[4]
  C. albicans Overnight Growth Inhibition: −25.4%
[5]
  C. albicans Phenotype Rating: 5

## Cc1cc(NS(=O)(=O)c2ccc(N3CCCC3)cc2)no1
[1]; [7]
  IC50: 91 nM
[2]; [8]
  pIC50: 5.43
[4]
  C. albicans Overnight Growth Inhibition: 4.4%
[5]
  C. albicans Phenotype Rating: 4 and 5

## O=c1cc[nH]c(=S)[nH]1 [Compound 2-thiouracil, 2-thiouracil]
[6]
  expected LD50 of control drug: > 1000 µM

## CCCCc1ccc(S(=O)(=O)Nc2cc(C)on2)cc1 [Compound I]
[1]; read-out: concentration inhibiting invasion of logarithmic phase C. albicans by 50%, logarithmic phase
  IC50: 0.0049 µg/mL
[2]; Candida albicans, read-out: concentration inhibiting invasion of stationary phase C. albicans by 50%, stationary phase
  IC50: 0.85 µg/mL
[3]
  mammalian cell LD50: greater than 1000 μM
[5]; 10 μM
  average morphology score: 1
